In EP2687213B1, “Solid forms comprising (+)-2-[1-(3-ethoxy-4-methoxyphenyl)-2-methylsulfonylethyl]-4-acetylaminoisoindoline-1,3-dione, compositions thereof, and uses thereof” (CELGENE CORPORATION, priority 2008, dated 2009):

What was measured:
conscious ferret = assay: Emesis and behavioral changes in conscious ferrets after oral dosing; type: in vivo; settings: for Ataxia / Backward walking / Flattened posture / Lip licking / Mouth clawing / Panting / Retches / Salivation / Vomits: oral, (animals that responded/group)
Protocol: PDE4 inhibitors were administered orally (p.o.), at doses initially of […], but subsequently up to 30 mg/kg in order to establish whether the TI was 10 or higher, and/or at lower doses to establish the minimum dose to cause 50% inhibition of neutrophilia. Ferrets were fasted overnight but allowed free access to water. The animals were orally dosed with vehicle or PDE4 inhibitor using a 15 cm dosing needle that was passed down the back of the throat into the oesophagus. After dosing, the animals were returned to holding cages fitted with Perspex doors to allow observation, and given free access to water. After dosing, the animals were constantly observed and any emesis or behavioral changes were recorded. The animals were allowed access to food 60 to 90 minutes after p.o. dosing.
Thirty minutes after p.o. dosing with compound or vehicle control, the ferrets were placed into sealed Perspex containers and exposed to an aerosol of LPS (100 µg/ml) for 10 minutes. Aerosols of LPS were generated by a nebulizer (DeVilbiss, USA) and this was directed into the Perspex exposure chamber. Following a 10 minute exposure period, the animals were returned to the holding cages and allowed free access to water, and at a later stage, food. Observation continued for a period of at least 2.5 hours post p.o. dosing and emetic episodes and behavioral changes were recorded.
(§1) • 1. % Inhibition of LPS-induced pulmonary neutrophilia. • 2. Emetic episodes - the number of vomits and retches were counted. • 3. Behavioral changes - the following behavioral effects were noted: salivation, panting, mouth clawing, flattened posture, ataxia, arched back and backward walking. Any behavioral changes were semi-quantified by applying a severity rating (mild, moderate or severe). • 4. The TI was calculated as the highest dose found to not cause emetic episodes divided by the lowest dose found to inhibit pulmonary neutrophilia by 50% or more.
Numbers in parentheses refer to the number of animals that responded. The numbers of animals in each group range from 4 to 22.

[1] = biological target: PDE5 from human platelets (Homo sapiens, UniProt O76074); assay: PDE5 enzyme assay; type: biochemical; settings: from PDE inhibition data of Table 1
[2] = tested on: LPS-induced pulmonary neutrophilia; assay: LPS-induced lung neutrophilia conscious ferret model; type: in vivo; settings: threshold emetic dose divided by ED50 for pulmonary neutrophilia
Excerpt: The conscious ferret model has been used to investigate anti-inflammatory, emetic and behavioral effects of PDE4 inhibitors when administered by the oral (p.o.) route. From these experiments, a therapeutic index (TI) for each PDE4 inhibitor may be determined. The TI has been calculated by dividing the threshold dose for causing emetic episodes and behavioral changes by the anti-inflammatory dose (dose that causes 50% inhibition of the LPS-induced neutrophilia). […]
Thirty minutes after p.o. dosing with compound or vehicle control, the ferrets were placed into sealed Perspex containers and exposed to an aerosol of LPS (100 µg/ml) for 10 minutes. […] Observation continued for a period of at least 2.5 hours post p.o. dosing and emetic episodes and behavioral changes were recorded. […]
The bronchoalveolar lavage (BAL) samples were centrifuged at 1,500 rpm for 5 minutes. […] From this, the total number of neutrophils in the BAL was determined.
as §1, with “Behavioral changes - the following behavioral effects were noted: salivation, panting, mouth clawing, flattened posture, ataxia, arched back and backward walking.” left out

bovine PDE1 = assay: PDE1 enzyme assay; type: biochemical; settings: from PDE inhibition data of Table 1
[3] = Equilibrium aqueous solubility in pH 7.4 buffer; type: physicochemical
Protocol: Equilibrium solubilities were measured in pH 7.4 aqueous buffer. The pH 7.4 buffer was prepared by adjusting the pH of a 0.07 M NaH2PO4 solution to 7.4 with 10 N NaOH. The ionic strength of the solution was 0.15. At least 1 mg of powder was combined with 1 ml of buffer to make >1 mg/ml mixture. These samples were shaken for >2 hours and left to stand overnight at room temperature. The samples were then filtered through a 0.45-µm Nylon syringe filter that was first saturated with the sample. The filtrate was sampled twice, consecutively. The filtrate was assayed by HPLC against standards prepared in 50% methanol.

[4] = biological target: PDE3 from human platelets (Homo sapiens, UniProt Q14432); assay: PDE3 enzyme assay; type: biochemical; settings: from PDE inhibition data of Table 1
Chain of PDE3 from human platelets (Q14432 whole entry): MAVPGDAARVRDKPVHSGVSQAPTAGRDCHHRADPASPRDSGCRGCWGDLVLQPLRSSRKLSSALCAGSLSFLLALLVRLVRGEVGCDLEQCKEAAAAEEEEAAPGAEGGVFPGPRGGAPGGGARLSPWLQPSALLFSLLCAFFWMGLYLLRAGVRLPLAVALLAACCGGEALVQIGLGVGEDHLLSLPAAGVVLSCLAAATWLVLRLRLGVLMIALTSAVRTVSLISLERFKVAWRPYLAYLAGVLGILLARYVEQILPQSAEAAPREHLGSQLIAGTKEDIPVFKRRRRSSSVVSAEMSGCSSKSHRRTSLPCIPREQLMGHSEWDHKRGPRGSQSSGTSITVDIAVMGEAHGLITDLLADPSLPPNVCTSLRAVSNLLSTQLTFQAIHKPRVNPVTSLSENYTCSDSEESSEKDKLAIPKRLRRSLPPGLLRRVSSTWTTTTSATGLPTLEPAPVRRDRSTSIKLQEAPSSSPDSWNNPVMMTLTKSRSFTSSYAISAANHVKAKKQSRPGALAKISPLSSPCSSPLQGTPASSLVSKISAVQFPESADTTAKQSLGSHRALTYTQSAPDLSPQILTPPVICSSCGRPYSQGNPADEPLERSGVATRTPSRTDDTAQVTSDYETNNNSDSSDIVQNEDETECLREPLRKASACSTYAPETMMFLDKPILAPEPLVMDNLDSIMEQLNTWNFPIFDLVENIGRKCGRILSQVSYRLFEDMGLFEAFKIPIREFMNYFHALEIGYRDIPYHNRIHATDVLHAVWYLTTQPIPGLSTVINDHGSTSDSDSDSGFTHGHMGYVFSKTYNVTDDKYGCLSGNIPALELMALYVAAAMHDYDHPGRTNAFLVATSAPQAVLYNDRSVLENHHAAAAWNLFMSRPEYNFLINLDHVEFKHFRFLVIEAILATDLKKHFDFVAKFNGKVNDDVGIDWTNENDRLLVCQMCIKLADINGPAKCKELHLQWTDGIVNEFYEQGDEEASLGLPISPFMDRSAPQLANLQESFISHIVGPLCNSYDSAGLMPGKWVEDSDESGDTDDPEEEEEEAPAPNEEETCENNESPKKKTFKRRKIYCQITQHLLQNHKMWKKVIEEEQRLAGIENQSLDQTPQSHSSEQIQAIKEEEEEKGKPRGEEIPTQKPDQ

[5] = tested on: patients with severe plaque-type psoriasis
[6] = 20 mg orally daily, number of patients
[7] = responders (≥ 20% epidermal thickness reduction), 8 patients, Day 29

CCOc1cc(C(CS(C)(=O)=O)N2C(=O)c3cccc(NC(C)=O)c3C2=O)ccc1OC (single isomer, unassigned; (+)) [Compound A, (+)-2-[1-(3-ethoxy-4-methoxyphenyl)-2-methylsulfonylethyl]-4-acetylaminoisoindoline-1,3-dione]
emetic episodes (conscious ferret; 10 mg/kg p.o., in 2/6 ferrets): some retching but no frank emesis
emesis (conscious ferret; 30 mg/kg p.o. (highest dose tested), in 3/4 animals): moderate to marked emesis
behavioral changes (flattened posture, lip licking and backward walking), severity (conscious ferret; 0.1-3 mg/kg, p.o.): mild
emetic episodes (retching and vomiting) (conscious ferret; 0.1-3 mg/kg, p.o.): no emetic episodes
Ataxia (conscious ferret; 0.1 mg/kg): None
Backward walking (conscious ferret; 0.1 mg/kg): Mild (3/5)
Flattened posture (conscious ferret; 0.1 mg/kg): Mild (2/5)
Lip licking (conscious ferret; 0.1 mg/kg): Mild (4/5)
Mouth clawing (conscious ferret; 0.1 mg/kg): None
Panting (conscious ferret; 0.1 mg/kg): None
Retches (conscious ferret; 0.1 mg/kg): None
Salivation (conscious ferret; 0.1 mg/kg): None
Vomits (conscious ferret; 0.1 mg/kg): None
Ataxia (conscious ferret; 0.3 mg/kg): None
Backward walking (conscious ferret; 0.3 mg/kg): Mild (4/6)
Flattened posture (conscious ferret; 0.3 mg/kg): Mild (2/6)
Lip licking (conscious ferret; 0.3 mg/kg): Mild (3/6)
Mouth clawing (conscious ferret; 0.3 mg/kg): None
Panting (conscious ferret; 0.3 mg/kg): None
Retches (conscious ferret; 0.3 mg/kg): None
Salivation (conscious ferret; 0.3 mg/kg): None
Vomits (conscious ferret; 0.3 mg/kg): None
Ataxia (conscious ferret; 1.0 mg/kg): None
Backward walking (conscious ferret; 1.0 mg/kg): Mild (4/6)
Flattened posture (conscious ferret; 1.0 mg/kg): Mild (2/6)
Lip licking (conscious ferret; 1.0 mg/kg): Mild (6/6)
Mouth clawing (conscious ferret; 1.0 mg/kg): None
Panting (conscious ferret; 1.0 mg/kg): None
Retches (conscious ferret; 1.0 mg/kg): None
Salivation (conscious ferret; 1.0 mg/kg): None
Vomits (conscious ferret; 1.0 mg/kg): None
Ataxia (conscious ferret; 3.0 mg/kg): None
Backward walking (conscious ferret; 3.0 mg/kg): Moderate (5/8)
Flattened posture (conscious ferret; 3.0 mg/kg): Marked (7/8)
Lip licking (conscious ferret; 3.0 mg/kg): Mild (2/8)
Mouth clawing (conscious ferret; 3.0 mg/kg): Mild (1/8)
Panting (conscious ferret; 3.0 mg/kg): None
Retches (conscious ferret; 3.0 mg/kg): None
Salivation (conscious ferret; 3.0 mg/kg): None
Vomits (conscious ferret; 3.0 mg/kg): None
Ataxia (conscious ferret; 10 mg/kg): None
Backward walking (conscious ferret; 10 mg/kg): Marked (6/6)
Flattened posture (conscious ferret; 10 mg/kg): Marked (6/6)
Lip licking (conscious ferret; 10 mg/kg): Moderate (5/6)
Mouth clawing (conscious ferret; 10 mg/kg): Mild (1/6)
Panting (conscious ferret; 10 mg/kg): None
Retches (conscious ferret; 10 mg/kg): Mild (2/6)
Salivation (conscious ferret; 10 mg/kg): Mild (1/6)
Vomits (conscious ferret; 10 mg/kg): None
Ataxia (conscious ferret; 30 mg/kg): Mild (3/4)
Backward walking (conscious ferret; 30 mg/kg): Mild (2/4)
Flattened posture (conscious ferret; 30 mg/kg): Marked (4/4)
Lip licking (conscious ferret; 30 mg/kg): Moderate (4/4)
Mouth clawing (conscious ferret; 30 mg/kg): Marked (4/4)
Panting (conscious ferret; 30 mg/kg): Mild (1/4)
Retches (conscious ferret; 30 mg/kg): Marked (3/4)
Salivation (conscious ferret; 30 mg/kg): Moderate (3/4)
Vomits (conscious ferret; 30 mg/kg): Moderate (3/4)
PDE Specificity Ratio PDE4/PDE5 [1]: >30000 fold
Therapeutic index [2]: 12
PDE Specificity Ratio PDE4/PDE1 (bovine PDE1): >500 fold
aqueous solubility greater than the racemic mixture [3]: 3.5 fold
PDE Specificity Ratio PDE4/PDE3 [4]: >1200 fold
patients with abnormal HLA-DR that had normal HLA-DR at Day 29 [5, 6]: Two
patients with abnormal ICAM-1 at baseline that had normal ICAM-1 at Day 29 [5, 6]: Three
patients with abnormal K16 at baseline that had normal K16 at Day 29 [5, 6]: one
patients with abnormal fillagrin at baseline that had normal fillagrin at Day 29 [5, 6]: three
safety (overall conclusion) ([5]; 20 mg p.o. QD for 29 days): safe
Percentage Reduction of Key Inflammatory Markers at Day 29: CD11c, Dermis ([5]; Responder, signed change): -18.50%
Percentage Reduction of Key Inflammatory Markers at Day 29: CD11c, Epidermis ([5]; Responder, signed change): -40.16%
Percentage Reduction of Key Inflammatory Markers at Day 29: CD83+, Dermis ([5]; Responder, signed change): -25.86%
Percentage Reduction of Key Inflammatory Markers at Day 29: CD83+, Epidermis ([5]; Responder, signed change): -32.50%
Percentage Reduction of Key Inflammatory Markers at Day 29: T-cells, Dermis ([5]; Responder, signed change): -28.79%
Percentage Reduction of Key Inflammatory Markers at Day 29: T-cells, Epidermis ([5]; Responder, signed change): -42.56%
decrease of dermal T-cells [5, 7]: 28.79%
decrease of epidermal T-cells [5, 7]: 42.56%
CD11c cells reduced in the dermis ([5]; responders, Day 29): 18.50%
CD11c cells reduced in the epidermis ([5]; responders, Day 29): 40.16%
Mean reduction from baseline in dermal CD83+ cells ([5]; responders, Day 29): 25.86%
Mean reduction from baseline in epidermal CD83+ cells ([5]; responders, Day 29): 32.50%
deaths ([5]; treatment and follow-up phases): No deaths were reported
